What all share (type): in vivo
In one assay the test system is Acala type cottons. As to the kind of experiment: Harvested seed cotton weight of container grown cottons, Tucson, Ariz. The text has this: Table three illustrates the comparative advantage of the combination of buffered AMP and propyl gallate liquid formulation applied to two sets of Acala type cottons container grown in Tucson, Ariz. An extended harvest period was possible. Seed cotton was hand picked over several weeks. Bolls with fiber and seed were dried, individually weighed, and treatments were separated and bulked together. Osmocote complete fertilizer was applied twice—at two and four weeks—following the chemical formulation applications.

Another assay has as its system seed. As to the kind of experiment: Replicated field plots comparing two lipoxygenase inhibitors as seed treatments, Safford, Arizona. The conditions noted are these: for Germination % / Seedling Ht. (cm) / Surviving Stand %: inhibitor coated at 2.0 g per kg dry seed; for Germination % / Seedling Ht. (cm) / Surviving Stand % / Emergence Coeff.: fungicide co-treatment, mean ± standard error; for Emergence Coeff.: smaller coefficient = faster seedling emergence, 2.0 g per kg dry seed. The text has this: The presence of lipoxygenase isoenzymes has always been considered a necessary enzymatic constituent of seed, with the enzyme especially predominant in oil seeds. The detrimental effects of lipoxygenase activity on the viability and storage attributes of seeds have been reported by a number of authors. (Leopold; Parrish; Pfeiffer, et al.: and Hajika, et al.)
Propyl gallate is the inhibitor and antioxidant of choice for inclusion in the improvement of U.S. Pat. No. 4,209,316 described in this application. […] Selected location: Safford, Arizona Experimental Research Station. Each data entry represents the mean of replicated random samples plus or minus the standard error. The smaller the emergence coefficient, the faster the speed of seedling emergence from the soil. All treatments except the first control received a fungicide co-treatment. Lipoxygenase inhibitors were coated on the seed at a rate of 2.0 grams per kilogram of dry seed.

In a further assay the test system is seeds. As to the kind of experiment: Classical antioxidants applied to seeds at much higher concentrations.

With `CCCOC(=O)c1cc(O)c(O)c(O)c1` [Propyl Gallate, propyl gallate], in the assay on Acala type cottons (group one), the “Combined weight of harvested seed cotton per group (in grams)” value came to 640 grams. The “Combined weight of harvested seed cotton per group (in grams)” value in the assay with Acala type cottons (group two) worked out at 423 grams. In the assay on seed, the Germination % is 23.0 ± 2.3%, the “Seedling Ht. (cm)” value was found to be 17.3 ± 0.6 cm, the “Surviving Stand %” value is 57.8 ± 3.0% and the “Emergence Coeff.” value is 0.52 ± 0.03.
As for vitamin E, in the assay with seeds, the “enhancement of seed germination and viability traits” value is “no enhancement”.
On the same count and under the same terms, under `O=C1O[C@H]([C@@H](O)CO)C(O)=C1O` [ascorbic acid] stands “no enhancement”; under `Cc1cc(C(C)(C)C)c(O)c(C(C)(C)C)c1` [butylated hydroxylated toluene], “no enhancement”.
Consider `Oc1ccc(O)cc1` [Hydroquinone], for which, in the assay on seed, the Germination % is 22.9 ± 3.1%, the “Seedling Ht. (cm)” value is on record as 16.6 ± 0.4 cm, the “Surviving Stand %” value amounted to 60.6 ± 3.5% and the “Emergence Coeff.” value was found to be 0.50 ± 0.04. Also, the “effectiveness as lipoxygenase inhibitor seed treatment” value in the assay on seed (seed treatment with inhibitor alone) is “effective”.
